According to US7312245B2 (priority 2001, dated 2007):
Like-named read-outs stand apart in the source and are kept apart here.

Experiments:
Format in all cases: in vivo
Pyricularia oryzae [1] = details: spray application of wettable powder diluted to 500 ppm; rice Koshihikari 2-leaf stage; spray-inoculated with Pyricularia oryzae spores; examined after 7 days
Pyricularia oryzae [2] = details: granules applied to water surface at 3 kg/10 ares; rice Koshihikari; inoculated 30 days after application; lesions checked after 1 week
Pyricularia oryzae [3] = details: nursery box treated with granules 50 g per box; rice Koshihikari; inoculated 30 days after transplantation; lesions counted after 1 week

Row | Structure (SMILES) | Grade of Effect (preventive value, rice blast controlling effect) (Pyricularia oryzae [1]) | Grade of Effect (preventive value, rice blast controlling effect) (Pyricularia oryzae [2]) | Grade of Effect (preventive value, rice blast controlling effect) (Pyricularia oryzae [3])
1 | Cc1ccc(C(=O)NCC(NC(=O)OCc2ccoc2)C(C)C)cc1 (stereo not drawn) [compound 1141] | A (100%) | A (From 80% to 100%) | A (From 80% to 100%)
2 | CC(C)C(CNC(=O)c1ccc(Cl)cc1)NC(=O)OCC1CCCO1 (stereo not drawn) [compound 1153] | A (100%) | A (From 80% to 100%) | A (From 80% to 100%)
3 | Cc1ccc(C(=O)NCC(NC(=O)OCC2CCCO2)C(C)C)cc1 (stereo not drawn) [compound 1156] | A (100%) | A (From 80% to 100%) | A (From 80% to 100%)
4 | CC(C)C(CNC(=O)c1ccc(Cl)cc1)NC(=O)OCc1cccs1 (stereo not drawn) [compound 1168] | A (100%) | A (From 80% to 100%) | A (From 80% to 100%)
5 | Cc1ccc(C(=O)NCC(NC(=O)OCc2cccs2)C(C)C)cc1 (stereo not drawn) [compound 1171] | A (100%) | A (From 80% to 100%) | A (From 80% to 100%)
6 | CC(C)C(CNC(=O)c1ccc(Cl)cc1)NC(=O)OCC1CC1 (stereo not drawn) [compound 1183] | A (100%) | A (From 80% to 100%) | A (From 80% to 100%)
7 | Cc1ccc(C(=O)NCC(NC(=O)OCC2CC2)C(C)C)cc1 (stereo not drawn) [compound 1186] | A (100%) | A (From 80% to 100%) | A (From 80% to 100%)
8 | CC(C)C(CNC(=O)c1ccc(Cl)cc1)NC(=O)OCC(C)(C)C (stereo not drawn) [compound 1198] | A (100%) | A (From 80% to 100%) | A (From 80% to 100%)
9 | Cc1ccc(C(=O)NCC(NC(=O)OCC(C)(C)C)C(C)C)cc1 (stereo not drawn) [compound 1201] | A (100%) | A (From 80% to 100%) | A (From 80% to 100%)
10 | C=C(C)COC(=O)NC(CNC(=O)c1ccc(Cl)cc1)C(C)C (stereo not drawn) [compound 1213] | A (100%) | A (From 80% to 100%) | A (From 80% to 100%)
11 | C=C(C)COC(=O)NC(CNC(=O)c1ccc(C)cc1)C(C)C (stereo not drawn) [compound 1216] | A (100%) | A (From 80% to 100%) | A (From 80% to 100%)
12 | CC(C)C(CNC(=O)c1ccc(Cl)cc1)NC(=O)OC(C)C(C)C (stereo not drawn) [compound 1228] | A (100%) | A (From 80% to 100%) | A (From 80% to 100%)
13 | Cc1ccc(C(=O)NCC(NC(=O)OC(C)C(C)C)C(C)C)cc1 (stereo not drawn) [compound 1231] | A (100%) | A (From 80% to 100%) | A (From 80% to 100%)
14 | CSCCOC(=O)NC(CNC(=O)c1ccc(Cl)cc1)C(C)C (stereo not drawn) [compound 1258] | A (100%) | A (From 80% to 100%) | A (From 80% to 100%)
15 | CSCCOC(=O)NC(CNC(=O)c1ccc(C)cc1)C(C)C (stereo not drawn) [compound 1261] | A (100%) | A (From 80% to 100%) | A (From 80% to 100%)
16 | CC(C)C(CNC(=O)c1ccc(Cl)cc1)NC(=O)OCCS(C)(=O)=O (stereo not drawn) [compound 1273] | A (100%) | A (From 80% to 100%) | A (From 80% to 100%)
17 | Cc1ccc(C(=O)NCC(NC(=O)OCCS(C)(=O)=O)C(C)C)cc1 (stereo not drawn) [compound 1276] | A (100%) | A (From 80% to 100%) | A (From 80% to 100%)
